Test results as given in patent US9308260B2, “Anticonvulsive pharmaceutical compositions” (INSERM (INSTITUT NATIONAL DE LA SANTE ET DE LA RECHERCHE …, priority 2007, dated 2016).
Entries after “also recorded” stand apart in the source; their conditions may differ. One block for each compound: values may come before it.

How the values were obtained:
BALB/c mice [1] = assay: Photopic electroretinogram (ERG) in vigabatrin-treated mice; type: in vivo, mouse; conditions: 29 days
Description: (§1) As described previously (Duboc et al., 2004), Wistar rats Rj Wi IOPS Han and Balb c mice were purchased from Janvier Breeding Center (Le Genest St Isle, France) at 7 weeks. VGB was dissolved in 0.9% NaCl at a concentration of 125 mg/ml. It was administered at 40 mg (125 mg/ml, 0.32 ml) by daily intraperitoneal injection for 45 or 65 days and at 3 mg (60 mg/ml, 0.05 ml) to mice for 29 days (daily dose of about 200 mg/kg in rats and 150 mg/kg in mice). Vitamin B6 (active form) was administered at a dose of 1 mM/kg (solution 154.46 mg/ml) whereas taurine was provided in the drinking water at 0.1 mol/l.
(§2) ERG were recorded as described previously after the last VGB injection (Duboc et al., 2004). Anesthesia was induced by an intramuscular injection of a solution containing ketamine (100 mg/kg) and xylazine (10 mg/kg). After 10 min adaptation to a 2.5 cdm^−2 light intensity, ten recordings were obtained with flash intensity of 10 cdsm^−2 at an interstimulus interval 30 s and subsequently averaged. These photopic ERG measurements were performed after 59 days in rats and 29 days in mice.
(§3) As described previously (Duboc, A., et al. Vigabatrin, the GABA-transaminase inhibitor, damages cone photoreceptors in rats. Annals of neurology Vol. 55, 695-705 (2004).), Wistar rats Rj Wi IOPS Han or BALB/c mice were purchased from Janvier (Le Genest-St-Isle, France) at between six and seven weeks of age. VGB dissolved in 0.9% NaCl was administered at 40 mg (125 mg/ml, 0.32 ml) to rats by daily intraperitoneal injection for 45 or 65 days and at 3 mg (60 mg/ml, 0.05 ml) to mice for 29 days. These daily doses (rats: 200 mg/kg; mice: 150 mg/kg) are in-line with those described for the treatment of epilepsy in animals (Andre, V., Ferrandon, A., Marescaux, C. & Nehlig, A. Vigabatrin protects against hippocampal damage but is not antiepileptogenic in the lithium-pilocarpine model of temporal lobe epilepsy. Epilepsy research Vol. 47, 99-117 (2001)) or in humans (adult patients: 1-6 mg/kg; children: 50-75 mg/kg; or infants: 100-400 mg/kg) (Chiron, C., Dumas, C., Jambaque, I., Mumford, J. & Dulac, O. Randomized trial comparing vigabatrin and hydrocortisone in infantile spasms due to tuberous sclerosis. Epilepsy research Vol. 26, 389-395 (1997); Lux, A. L., et al. The United Kingdom Infantile Spasms Study comparing vigabatrin with prednisolone or tetracosactide at 14 days: a multicentre, randomised controlled trial. Lancet Vol. 364, 1773-1778 (2004); Aicardi, J., Mumford, J. P., Dumas, C. & Wood, S. Vigabatrin as initial therapy for infantile spasms: a European retrospective survey. Sabril IS Investigator and Peer Review Groups. Epilepsia Vol. 37, 638-642 (1996)). Taurine supplementation was given in drinking water at a concentration of 0.1M. Light intensity in the animal cages ranged between 125 and 130 lux for rats and between 70 and 85 lux for mice.
Photopic ERGs were recorded after the last VGB injection, as described previously (Duboc, A., et al. Vigabatrin, the GABA-transaminase inhibitor, damages cone photoreceptors in rats. Annals of neurology Vol. 55, 695-705 (2004).). Anesthesia was induced by intraperitoneal injection (0.8 to 1.2 ml/kg) of a solution containing ketamine (40 mg/ml) and xylazine (4 mg/ml Rompum). Animals were light-adapted for 10 minutes with a background light of 25 cdm^−2. Light flashes were then applied on this background light; the light intensity of the flash was 10 cdsm^−2 for the mouse experiments and for the rats maintained in darkness (FIGS. 2, 6) or 25 cdsm^−2 for other experiments (FIGS. 3, 5). Ten recordings were averaged with an interstimulus interval of 30 s.

[2] = Blood/plasma amino acid concentrations in vigabatrin-treated rats; type: in vivo, rat
Description: as §1
After 65 days of injection, rats were anesthetized for blood sampling. Anesthesia was induced as described above. Under anesthesia an indwelling catheter was placed in the carotid artery. This method allowed obtaining a single, large, good quality blood sample. A 1 mL blood sampling was taken for each rat in a heparinized blood sampler, immediately centrifuged and frozen at −80° C. Automated amino acid ion chromatography (Pasteur Cerba, France) was used for the quantitative determination of total and free amino acids in the samples.
as §3, with “Light intensity in the animal cages ranged between 125 and 130 lux for rats and between 70 and 85 lux for mice.” left out

[3] = Plasma taurine levels in infants with infantile spasms receiving VGB therapy; type: in vivo, human; conditions: for Taurine level: measured
Description: Blood samples were collected in haemolysis tubes containing heparin (14 IU/ml) and centrifuged (2200 g, 15 min). Plasma amino-acid analysis was performed by ion-exchange chromatography with nihydrin detection using a JEOL AMINOTAC analyser.
We then evaluated whether these findings have any clinical relevance in patients with epilepsy. Plasma taurine levels were reviewed retrospectively in patients presenting infantile spasms, who had received VGB treatment for at least six months in Necker Hospitals for the last 3 years. Plasma amino-acid levels are routinely measured in patients with infantile spasms as part of their etiological work-up, particularly when brain RMI is negative. Data were available in six patients (Table 2 hereunder). […] For one of these two patients (patient 2), the taurine level was measured before starting a 15 month period of VGB therapy and this taurine level was normal. In patient 6, the taurine level was in the lower part of the normal range, but this measurement could have been overestimated by the delayed blood centrifugation. Thus, taurine levels seem to be decreased in VGB-treated epileptic infants.

Wistar rats [4] = assay: Photopic electroretinogram (ERG) in vigabatrin-treated rats; type: in vivo, rat
Description: as §1, §2
As described previously (Duboc, A., et al. Vigabatrin, the GABA-transaminase inhibitor, damages cone photoreceptors in rats. Annals of neurology Vol. 55, 695-705 (2004).), Wistar rats Rj Wi IOPS Han or BALB/c mice were purchased from Janvier (Le Genest-St-Isle, France) at between six and seven weeks of age. VGB dissolved in 0.9% NaCl was administered at 40 mg (125 mg/ml, 0.32 ml) to rats by daily intraperitoneal injection for 45 or 65 days and at 3 mg (60 mg/ml, 0.05 ml) to mice for 29 days. […]
Photopic ERGs were recorded after the last VGB injection, as described previously (Duboc, A., et al. Vigabatrin, the GABA-transaminase inhibitor, damages cone photoreceptors in rats. Annals of neurology Vol. 55, 695-705 (2004).). […]

BALB/c mice [5] = assay: Retinal histology quantification in vigabatrin-treated mice; type: in vivo, mouse
Description: as §3
Eye cups were fixed overnight at 4° C. in 4% (wt/vol) paraformaldehyde in phosphate buffered saline (PBS; 0.01M, pH 7.4). The tissue was cryoprotected in successive solutions of PBS containing 10%, 20% and 30% sucrose at 4° C., oriented along the dorso-ventral axis and embedded in OCT (Labonord, Villeneuve d′Ascq, France). Retinal sections (8-10 μm thickness) were permeabilised for five minutes in PBS containing 0.1% Triton X-100 (Sigma, St. Louis, Mo.), rinsed, and incubated in PBS containing 1% bovine serum albumin (Eurobio, Les-Ulis, France), 0.1% Tween 20 (Sigma), and 0.1% sodium azide (Merck, Fontenay-Sous-Bois, France) for two hours at room temperature. The primary antibody added to the solution was incubated for two hours at room temperature. Polyclonal antibodies were directed against VGluT1 (1:2000, Chemicon), rabbit GFAP (1/400, Dako, USA) and mouse cone arrestin (Zhu, X., et al. Mouse cone arrestin expression pattern: light induced translocation in cone photoreceptors. Molecular vision Vol. 8, 462-471 (2002)) (Luminaire junior, LUMIj, 1:20,000). Monoclonal antibodies were directed against Goa (1:2000, Chemicon). Sections were rinsed and then incubated with the secondary antibody, goat anti-rabbit IgG or rabbit anti-mouse IgG conjugated to either Alexa TM594 or Alexa TM488 (1:500, Molecular Probes, Eugene, Oreg.) for two hours. […]
(§4) For quantification, vertical sections along the dorso-ventral axis were selected at the optic nerve. Following DAPI nuclear staining, the lengths of disorganised retinal areas were measured; GFAP immunostaining was used for detection and quantificationof retinal areas with reactive gliosis. […]

Wistar rats [6] = assay: Retinal histology quantification in vigabatrin-treated rats; type: in vivo, rat
Description: as §3, with “mice. […]” for “mice.”
as §4

[7] = vigabatrin alone versus control, listed as Vigabatrin
[8] = vigabatrin alone versus control, listed as vigabatrin
[9] = supplementation in addition to vigabatrin
[10] = VGB with taurine supplementation versus without, p<0.001

Photopic ERG amplitude (BALB/c mice [1]; [7]): decrease | Photopic ERG amplitude (BALB/c mice [1]; [8]): decrease in amplitude | Decrease of taurine level versus control animals ([2]; VGB-treated rats, 65 days, p<0.05): 67% | Reduction of methionine concentration versus control animals ([2]; VGB-treated rats, 65 days, significant): 22% | Reduction of glutamic acid concentration versus control animals ([2]; VGB-treated rats, 65 days, statistically significant): 56% | Taurine level ([3]; patient 1, VGB, normal 70 ± 22, delay to plasma preparation <2 h): und* | Taurine level ([3]; patient 2, VGB, normal 70 ± 22, delay <2 h): und | Taurine levels in VGB-treated epileptic infants (overall) ([3]; six patients, VGB for at least six months): decreased | Photopic ERG amplitude (Wistar rats [4]; [7]): decrease | Photopic ERG amplitude (Wistar rats [4]; [8]): decrease in amplitude | Sprouting of bipolar cell dendrites (BALB/c mice [5]; VGB alone): observed | Density of cone outer and inner segments (BALB/c mice [5]; VGB alone versus control, p<0.001): lower densities | GFAP immunostaining (Wistar rats [6]; VGB alone): increase in GFAP immunostaining
SMILES: C=CC(N)CCC(=O)O (stereo not drawn) [VGB, 4-amino-5-hexenoic acid]
Photopic ERG amplitude (BALB/c mice [1]; vigabatrin alone versus control): significantly lower photopic ERG amplitude than the control group

SMILES: NCCS(=O)(=O)O [taurine, 2-aminoethanesulfonic acid]
Photopic ERG amplitude (BALB/c mice [1]; [9]): no longer statistically significant; also recorded: smaller decrease in photopic ERG amplitude | Photopic ERG amplitude (BALB/c mice [1]; supplementation in addition to vigabatrin, listed as Taurine): suppressed this decrease in photopic ERG amplitude | Plasma levels of taurine ([2]; taurine 0.1M in drinking water of VGB-treated rats, n=7): increased above those of control animals | Photopic ERG amplitude (Wistar rats [4]; supplementation in addition to vigabatrin, versus vigabatrin alone): decreased less than in vigabatrin alone; also recorded: greater in VGB-treated animals receiving taurine supplementation; also recorded: smaller decrease in photopic ERG amplitude | Sprouting of bipolar cell dendrites (BALB/c mice [5]; VGB with taurine supplementation): completely suppressed | Disorganisation of the outer nuclear layer (areas of retinal disorganisation) (BALB/c mice [5]; [10]): smaller areas of retinal disorganisation | Density of cone outer and inner segments (BALB/c mice [5]; VGB with taurine supplementation, p<0.001): prevented this decrease in cone density | GFAP immunostaining (Wistar rats [6]; [10]): less extensive in animals receiving taurine supplementation | Cone segment density (Wistar rats [6]; VGB with taurine supplementation versus without, p<0.05): greater in the VGB-treated group with taurine supplementation

SMILES: Cc1ncc(COP(=O)(O)O)c(C=O)c1O [vitamin B6, pyridoxal-5′-phosphate]
Photopic ERG amplitude (BALB/c mice [1]; [9]): reduced the decrease in photopic ERG amplitude; also recorded: smaller decrease in photopic ERG than with vigabatrin alone
